{"source": "patent US20060292213A1", "about": "“Enoximone formulations and their use in the treatment of PDE-III mediated diseases” (Myogen, Inc., priority 2004, published 2006)", "key": {"[1]": {"system": "spontaneously hypertensive rats", "assay": "Anti-hypertensive activity, spontaneously hypertensive rats, single dose (Example 2)", "format": "in vivo, rat", "conditions": "for blood pressure (mean arterial): vehicle 169+/−7.9", "method": "Spontaneously hypertensive rats were divided into groups and treated with vehicle or a single dose of 10, 30 or 100 mg/kg of enoximone. Mean arterial blood pressure and heart rate were recorded before and at 15, 30, 45 and 60 minutes after treatment. Blood pressure decreased in all drug treatment groups."}, "anesthetized dogs": {"system": "anesthetized dogs", "assay": "Cardiorenal hemodynamics, i.v. infusion in anesthetized dogs (Example 3)", "format": "in vivo, dog"}, "Mongrel dogs": {"system": "Mongrel dogs", "assay": "Coronary blood flow, anesthetized mongrel dogs, electromagnetic flow probe (Example 5)", "format": "in vivo, dog", "method": "Mongrel dogs were anesthetized and given bolus injections of enoximone and coronary blood flow was measured using a Stratham electromagnetic flow probe, Model SP-7516-606-214, placed around the circumflex branch of the left coronary artery near its origin. The flow probe was connected to a Stratham Model SP2202 electromagnetic flow meter which was connected to a Grass Model 7P1 low level DC preamplifier. All recordings were made on a Grass Model 7B or […] polygraph."}, "perfused hindlimb": {"system": "perfused hindlimb", "assay": "Arteriolar resistance, pump perfused hindlimb preparation (Example 6)", "format": "in vivo, dog", "description": "The pump perfused hindlimb preparation permits the in vivo determination of the direct vascular effects of a compound. Dogs were anesthetized and allowed to respire sponatenously. The branchial artery and vein were cannulated and a catheter was passed down the left carotid artery into the left ventricle. […]"}, "[2]": {"system": "human platelet aggregation", "assay": "Human platelet aggregation in platelet rich plasma, aggregometer (Example 8)", "format": "cell-based", "conditions": "5 min, PRP incubated 5 minutes at room temperature", "method": "Substances which increase platelet cAMP levels are known to inhibit platelet aggregation. Blood was taken from human donors not on aspirin or taking any aspirin-containing substances (or other nonsteroidal anti-inflammatory drugs) for at least two weeks prior to donation. […] PRP was exposed only to plastic laboratory ware. All experiments were completed within 3 hours. PRP was incubated for 5 minutes at room temperature with enoximone prior to the addition of any aggregating agent. Aggregation was monitored by continuous recording of light transmittance in a Chrono-log dual-channel aggregometer (Chrono-log Corp.) in atotal volume of 0.5 ml PRP. Aggregating substances used were ADP (5 μM), collagen […] and arachidonic acid (2 μg/ml) (Chrono-log Corp.). Enoximone ([…]) inhibited platelet aggregation in a concentration dependent manner. […] It was also ruled out that enoximone was inhibiting aggregation by somehow inhibiting the metabolism of arachidonic acid as measured by HPLC and RIA."}, "[3]": {"system": "spontaneously hypertensive rats", "assay": "Anti-hypertensive activity, cannulated conscious female spontaneously hypertensive rats (Example 1)", "format": "in vivo, rat", "conditions": "45 and 60 minute time points, 100 mg/kg and 30 mg/kg groups; statistically significant", "method": "Female spontaneously hypertensive rats were anesthetized and cannulated. The end of the cannula was exteriorized through the skin for measurement of arterial blood pressure. Approximately 30 minutes after the rats regained consciousness, the experiment began. Mean blood pressure and heart rate were recorded 15 minutes prior to drug administration, at the time of administration, and 15, 30, 45 and 60 minutes following administration. Drug was administered at a variety of dosages. A statistically significant decrease in blood pressure of ˜42% was measured at the 45 and 60 minute time points for the 100 mg/kg and 30 mg/kg groups."}, "[4]": {"system": "subjects displaying chronic stable angina", "assay": "Double blind placebo controlled cross over trial in chronic stable angina (Example 7)", "format": "in vivo, human", "conditions": "single oral dose 75 mg", "method": "A double blind placebo controlled cross over trial of enoximone was done with 20 subjects displaying chronic stable angina. Enoximone as a single oral dose (75 mg) was compared with placebo."}, "normal human volunteers": {"system": "normal human volunteers", "assay": "Renal function and plasma volume in normal human volunteers (Example 4)", "conditions": "single I.V. dose 2.5 mg/kg, then 200 mg t.i.d. for 5 days"}, "PDE-III": {"system": "PDE-III", "conditions": "cited from earlier work"}, "men who suffer from ED": {"system": "men who suffer from ED", "conditions": "ED of psychogenic or organic etiology; cited from earlier work"}, "[5]": {"system": "patients with primary thrombocythemia and thrombocytosis", "conditions": "used to lower platelet counts; cited from earlier work"}}, "note": "Where two headings read alike, the source gives them in different places.", "data": [{"compound": "CSc1ccc(C(=O)c2[nH]c(=O)[nH]c2C)cc1", "note": "[Enoximone, 1,3-Dihydro-4-methyl-5-[4-(methylthio)benzoyl]-2H-imidazol-2-one]", "values": [{"measurement": "blood pressure (mean arterial)", "setting": "[1]; 45 minutes, 30 mg/kg, non-significant", "value": "151+/−9"}, {"measurement": "blood pressure (mean arterial)", "setting": "[1]; 60 minutes, 30 mg/kg, non-significant", "value": "142+/−8"}, {"measurement": "blood pressure (mean arterial)", "setting": "[1]; 60 minutes, 100 mg/kg, significant", "value": "100+/−9.7"}, {"measurement": "blood pressure, change in words", "setting": "[1]; all drug treatment groups (10, 30 or 100 mg/kg)", "value": "decreased"}, {"measurement": "heart rates", "setting": "[1]; all groups (10, 30 or 100 mg/kg)", "value": "unchanged"}, {"measurement": "blood pressure", "setting": "anesthetized dogs; 30 μg/kg/min i.v. infusion", "value": "decreasing"}, {"measurement": "cardiac contractile force", "setting": "anesthetized dogs; 30 μg/kg/min i.v. infusion", "value": "increasing"}, {"measurement": "glomerular filtration", "setting": "anesthetized dogs; 100 μg/kg/min i.v. infusion", "value": "unchanged"}, {"measurement": "increase in renal blood flow", "setting": "anesthetized dogs; 100 μg/kg/min i.v. infusion", "value": "15-20%"}, {"measurement": "renal vascular resistance", "setting": "anesthetized dogs; 100 μg/kg/min i.v. infusion", "value": "measurable decreases"}, {"measurement": "increase in coronary blood flow", "setting": "Mongrel dogs; bolus injection 0.1 mg/kg", "value": "12+/−2%"}, {"measurement": "increase in coronary blood flow", "setting": "Mongrel dogs; bolus injection 1 mg/kg", "value": "41+/−6%"}, {"measurement": "decrease in hind limb perfusion pressure", "setting": "perfused hindlimb; 0.3 mg/kg", "value": "11+/−2%"}, {"measurement": "decrease in hind limb perfusion pressure", "setting": "perfused hindlimb; 3 mg/kg", "value": "25+/−2%"}, {"measurement": "IC50", "setting": "[2]; ADP (5 μM), read-out: IC50 for ADP induced aggregation", "value": 20.9, "unit": "µg/mL"}, {"measurement": "IC50", "setting": "[2]; arachidonic acid (2 μg/ml), read-out: IC50 for arachidonic acid induced aggregation", "value": 0.24, "unit": "µg/mL"}, {"measurement": "IC50", "setting": "[2]; collagen (1.0 mM), read-out: IC50 for collagen induced aggregation", "value": 36.3, "unit": "µg/mL"}, {"measurement": "decrease in blood pressure", "setting": "[3]", "value": "~42", "unit": "%"}, {"measurement": "total exercise duration, mean difference versus placebo", "setting": "[4]; significantly longer than placebo", "value": 22.8, "unit": "s"}, {"measurement": "time to onset of angina and development of significant ST-segment decrease, versus placebo", "setting": "[4]; trends in favor of enoximone", "value": "similar"}, {"measurement": "renal function", "setting": "normal human volunteers", "value": "no impairment"}]}, {"compound": "CCCc1nn(C)c2c(=O)[nH]c(-c3cc(S(=O)(=O)N4CCN(C)CC4)ccc3OCC)nc12", "note": "[Sildenafil, 5-[2-ethoxy-5-(4-methylpiperazin-1-ylsulphonyl)phenyl]-1-methyl-3-n-propyl-6,7-dihydro-1H-pyrazolo[4,3-d]pyrimidin-7-one]", "values": [{"measurement": "inhibition of PDE-III", "setting": "PDE-III", "value": "negligible inhibition"}, {"measurement": "men with improved sexual function", "setting": "men who suffer from ED", "value": "about 70%"}]}, {"compound": "interferon-α", "values": [{"measurement": "patients achieving a stable state of remission", "setting": "[5]", "value": "approximately 50%"}]}]}
